The source of these data is patent US4822791A, “Pharmaceutical compositions of-2,2-1,1-[bis-2,2'-(3,1-benzoxazin-4-one)9 ethylenes” (priority 1984, dated 1989).

Like-named read-outs stand apart in the source and are kept apart here.

Series [1] deals with passive cutaneous anaphylaxis (PCA). Nature of the series: Anti-passive cutaneous anaphylaxis activity (PCA) in rats (Test Example 9). Format: in vivo. The conditions noted are these: Rattus norvegicus, po, 10 animals. How it is done:
(§1) Wistar strain rats were sensitized with ovalbumin using aluminium hydroxide gel and Bordetella Pertussis vaccine as adjuvants. Dilutions of antiserum (16-fold and 32-fold) obtained by collecting blood samples 14 days later were administered subcutaneously in the dorsal skin of the rats of the same strain at the rate of 0.1 ml per spot, and the rats were grown for 48 hours. One hour after peroral administration of the sample solution, a mixture of antigen ovalbumin and Evans-blue dye was administered to the tail venous of the animal according to the ordinary procedure. Thirty minutes later, the animals were sacrificed by exsanguination, and the areas of blue spots (long diameter×short diameter) eliciting on the portion of the antiserum injection at the dorsal skin were measured to obtain the rate of inhibition based on the average value shown by the control animals.
This test was conducted in a manner similar to that in Test Example 2, except that the dilutions of antiserum were 12- and 24-folds.

A short description of series [2]: Acute toxicity LD50 in ICR mice (Test Example 11). The settings on record: mouse, in vivo; intravenous; one week; Provit method; read-out: LD50 Value (mg/kg of body weight) Intravenous administration. The procedure: As test animals, ICR-strain mice (male) were used. According to the conventional procedure, suspension or solution of test sample was administered to the animals. From the number of the died animals until one week after the administration, LD50 values were obtained by Provit method.

In the next series the target is T1, hyaluronidase (Bos taurus, UniProt Q2YDK3).
T1 sequence (Q2YDK3 36-553): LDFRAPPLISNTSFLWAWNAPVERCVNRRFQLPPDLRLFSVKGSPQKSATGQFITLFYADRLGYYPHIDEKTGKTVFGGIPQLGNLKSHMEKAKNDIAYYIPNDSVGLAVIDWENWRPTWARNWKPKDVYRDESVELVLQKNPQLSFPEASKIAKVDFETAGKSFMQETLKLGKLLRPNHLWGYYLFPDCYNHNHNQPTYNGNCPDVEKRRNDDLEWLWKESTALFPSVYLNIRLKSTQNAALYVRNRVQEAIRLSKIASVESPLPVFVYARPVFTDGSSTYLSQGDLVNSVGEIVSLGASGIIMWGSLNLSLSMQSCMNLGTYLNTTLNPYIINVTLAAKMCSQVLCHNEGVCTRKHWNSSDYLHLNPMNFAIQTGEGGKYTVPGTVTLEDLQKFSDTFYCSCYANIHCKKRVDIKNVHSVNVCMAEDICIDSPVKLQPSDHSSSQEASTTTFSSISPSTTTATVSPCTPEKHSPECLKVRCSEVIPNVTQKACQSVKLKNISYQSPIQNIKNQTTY
Nature of the series: Anti-hyaluronidase activity (modified Morgan-Elson method). The conditions noted are these: hyaluronidase 340NF unit/ml, activating agent Compound 48/80 or CaCl2. It counts as biochemical.

Series [3] relates to passive cutaneous anaphylaxis (PCA). Nature of the series: Anti-passive cutaneous anaphylaxis (PCA) activity in rats (Test Example 2). The conditions noted are these: Rattus norvegicus, N 10; for inhibition in vivo at 50 mg/kg: 50 mg/kg PO; for inhibition in vivo at 100 mg/kg: 100 mg/kg PO; for inhibition in vivo at 10 mg/kg: 10 mg/kg PO. It counts as in vivo, Wistar strain rats. How it is done:
as §1

In series [4] the test system is experimental ulcer model (Shay). Nature of the series: Anti-ulcer activity in experimental ulcer model (Shay). Format: in vivo, Wistar strain male rats. The procedure:
Using 5 eight-week old Wistar strain male rats of 1 group, the rats were previously fasted for […]. The compound of an amount proportionate to the body weight based on the body weight after fasting was administered intraduodenally or intraperitoneally.
Each test compound was evenly suspended or dissolved in an aqueous solution of 0.5% CMC ccntaining 0.1% Tween 80, and administered at the rate of 0.5 ml per 100 g of body weight of the animal. To the controls, only the solvent was administered.
Test was carried out in accordance with Shay's method. After 48 hours' fasting, 5 animals per group were subjected to laparotomy under ether anesthesia, the tract between pylorus of stomach and duodenum was ligated, and the solution of the compound was administered intraduodenally (id) or intraperitoneally (ip), followed by suturing the laparotomy part. Eight hours after administration of the compound liquid, each animal was sacrificed by ether anesthesia and stomach was removed. Then, evaluation on the ulcer condition on the inner surface of stomach, and determination of the amount of gastric juice, of acidity by alkali titration, and of pepsin titer based on substrate of hemoglovin were made on the stored gastric juice. With regard to the acidity, gastric juice amount, and pepsin titer, the results were shown in inhibition rate (%) based on the average value of the control groups.

The nature of series [5]: Acute toxicity LD50 in mice (Test Example 8). The settings on record: mouse, in vivo, one week, Probit method. How it is done: ddy-Strain mice (male) and Wistar strain rats were used to obtain LD50 values.
According to the ordinary procedure, suspension or solution of test sample was administered to the animals. From the number of the died animals until one week after the administration, LD50 values were obtained by Probit method.

[6] abbreviates: read-out: Inhibition, Anti-serum Dilution: × 12.
Setting [7] is: read-out: Inhibition, Anti-serum Dilution: × 24.
[8] abbreviates: read-out: Average Inhibition Rate (%) Antiserum Dilution: × 16.
Where [9] appears, read: read-out: Average Inhibition Rate (%) Antiserum Dilution: × 32.
[10] abbreviates: iv, read-out: LD50 value (mg/kg body weight) Mouse i.v.
Where [11] appears, read: po, read-out: LD50 value (mg/kg body weight) Mouse p.o.

Experimental for hyaluronidase: A buffer soluticn of hyaluronidase (0.1 ml) was taken in a test tube and 0.2 ml each of the buffer solution of various compounds in various concentrations was added, and the mixture was preincubated at 37° C. for 20 minutes. Then, an activating agent (Compound 48/80 or CaCl2) (0.2 ml) was added to make the total amount 0.5 ml, which was incubated at 37° C. for 20 minutes. Then, potassium hyaluronate buffer solution (0.5 ml) was added, and the mixture was incubated at 37° C. for 40 minutes. After cooling, the mixture was treated with aqueous solution of 0.4N NaOH (0.2 ml) and neutralized to stop the reaction. The resulting product was subjecred to measurement of OD585 by the modified Morgan-Elson Method. […] (The final ccncentration of hyaluronidase was 340NF unit/ml.) [formula]

Take `CC(C)OC(=O)c1ccccc1NC(=O)C(=Cc1ccccc1)C(=O)Nc1ccccc1C(=O)OC(C)C` [Compound 53, diisopropyl 2,2'-[(1,3-dioxo-2-phenylmethylene-1,3-propanediyl)diimino]bisbenzoate]: the inhibition in vivo at 50 mg/kg in series [1] (setting [6]) turned out to be 26.1%; in series [1] (setting [7]), 23.9%.

Turning to `CC(C)(C)OC(=O)c1ccccc1NC(=O)C(=Cc1ccccc1)C(=O)Nc1ccccc1C(=O)OC(C)(C)C` [Compound 54, di-tertiary butyl 2,2'-[(1,3-dioxo-2-phenylmethylene-1,3-propanediyl)diimino]bisbenzoate], in series [1] (setting [6]), the inhibition in vivo at 10 mg/kg was 33% and the inhibition in vivo at 50 mg/kg came out at 38.8%. In addition, in series [1] (setting [7]), the inhibition in vivo at 10 mg/kg came out at 34.3% and the inhibition in vivo at 50 mg/kg was 42.6%. Further, the LD50 at 168 h in series [2] was 312 mg/kg.

Broadly, the IC50 is the midpoint of a concentration-inhibition curve. `COc1ccc(C=C(C(=O)Nc2cc([N+](=O)[O-])ccc2C(=O)O)C(=O)Nc2cc([N+](=O)[O-])ccc2C(=O)O)cc1OC` [Compound 22] gave an IC50 at hyaluronidase (IC50 (mM)) of 0.008 mM. The values for the inhibition in vivo at 50 mg/kg in series [3] (setting [8]) and in series [3] (setting [9]) were 19.7% and 22.6%, respectively. Further, the inhibition in vivo at 100 mg/kg in series [3] (setting [8]) is 34.6%; in series [3] (setting [9]), 40%. The “Inhibition % Gastric Acidity” value in series [4] (id 100 mg/kg) is 9.1%; in series [4] (id 200 mg/kg) it was 13.2%; in series [4] (id 300 mg/kg) it was 15.7%; in series [4] (ip 50 mg/kg), 38.2%. In addition, the “Inhibition % secretion amount of gastric juice” value in series [4] (id 100 mg/kg) was determined as 11.1%; in series [4] (id 200 mg/kg), 11.6%; in series [4] (id 300 mg/kg), 24.9%; in series [4] (ip 50 mg/kg), 29.0%. Moreover, the “Inhibition % total pepsin titer” value in series [4] (id 100 mg/kg) is recorded as 7.2%; in series [4] (id 200 mg/kg) it was 10.1%; in series [4] (id 300 mg/kg), 8.3%; in series [4] (ip 50 mg/kg), 37.2%.

With `CCOC(=O)OC(C)OC(=O)c1ccccc1NC(=O)C(=Cc1ccccc1)C(=O)Nc1ccccc1C(=O)OC(C)OC(=O)OCC` (stereo not shown) [Compound 58, di[1-(ethoxycarbonyloxy)ethyl]-2,2'-[(1,3-dioxo-2-phenylmethylene-1,3-propanediyl)diimino]bisbenzoate], in series [1] (setting [6]), the inhibition in vivo at 10 mg/kg came out at 40.2% and the inhibition in vivo at 50 mg/kg came to 50.8%. In series [1] (setting [7]), the inhibition in vivo at 10 mg/kg turned out to be 43.1% and the inhibition in vivo at 50 mg/kg came to 57.6%.

Regarding `CC(=O)Nc1ccc(C=C(C(=O)Nc2ccccc2C(=O)O)C(=O)Nc2ccccc2C(=O)O)cc1` [Compound 29], on hyaluronidase (read-out: IC50), the IC50 is 0.02 mM. Moreover, the inhibition in vivo at 100 mg/kg is 3.4% in series [3] (setting [8]) and 3.9% in series [3] (setting [9]). Besides, the “Inhibition % Gastric Acidity” value in series [4] (id 100 mg/kg) is reported as 0%; in series [4] (id 200 mg/kg), 0.7%. Also, the entries for the “Inhibition % secretion amount of gastric juice” value in series [4] (id 100 mg/kg) and in series [4] (id 200 mg/kg) were 0% and 0.5%, respectively. Moreover, the “Inhibition % total pepsin titer” value in series [4] (id 100 mg/kg) and in series [4] (id 200 mg/kg) was 0% each time.

In the case of `O=C(Nc1ccccc1C(=O)O)C(=Cc1ccc(Cl)cc1)C(=O)Nc1ccccc1C(=O)O` [Compound 30], on hyaluronidase (read-out: IC50), the IC50 came to 0.01 mM. Further, in series [3] (setting [8]), the inhibition in vivo at 10 mg/kg is 18.8%, the inhibition in vivo at 50 mg/kg turned out to be 23.4% and the inhibition in vivo at 100 mg/kg stood at 36.5%. Also, in series [3] (setting [9]), the inhibition in vivo at 10 mg/kg turned out to be 23.2%, the inhibition in vivo at 50 mg/kg stood at 33.3% and the inhibition in vivo at 100 mg/kg was found to be 42.5%. For the same compound, in series [5] (setting [10]), the LD50 at 168 h was 258 mg/kg. The LD50 at 168 h in series [5] (setting [11]) was 8380 mg/kg.

`COc1cc(C=C(C(=O)Nc2ccccc2C(=O)O)C(=O)Nc2ccccc2C(=O)O)ccc1O` [Compound 24]: the IC50 at hyaluronidase (read-out: IC50) is 0.02 mM. For the same compound, the LD50 at 168 h was 275 mg/kg in series [5] (setting [10]) and more than 10000 mg/kg in series [5] (setting [11]).

Take `O=C(Nc1ccccc1C(=O)OC1OC(=O)c2ccccc21)C(=Cc1ccccc1)C(=O)Nc1ccccc1C(=O)OC1OC(=O)c2ccccc21` (stereo not shown) [Compound 56]: in series [1] (setting [6]), the inhibition in vivo at 10 mg/kg is 44.7% and the inhibition in vivo at 50 mg/kg stood at 49.7%. For the same compound, in series [1] (setting [7]), the inhibition in vivo at 10 mg/kg stood at 43.6% and the inhibition in vivo at 50 mg/kg came out at 58.4%.

The compound `O=C(Nc1cc([N+](=O)[O-])ccc1C(=O)O)C(=Cc1ccccc1)C(=O)Nc1cc([N+](=O)[O-])ccc1C(=O)O` [Compound 16] came in with a 50% inhibitory concentration (IC50) at hyaluronidase (IC50 (mM)) of 0.01 mM. For the same compound, in series [3] (setting [8]), the inhibition in vivo at 50 mg/kg was determined as 3.2% and the inhibition in vivo at 100 mg/kg came out at 11.8%. Besides, in series [3] (setting [9]), the inhibition in vivo at 50 mg/kg was determined as 9% and the inhibition in vivo at 100 mg/kg amounted to 12.2%.

As for `CC(C)(C)C(=O)OCOC(=O)c1ccccc1NC(=O)C(=Cc1ccccc1)C(=O)Nc1ccccc1C(=O)OCOC(=O)C(C)(C)C` [Compound 57, di(pivaloyloxymethyl)-2,2'-[(1,3-dioxo-2-phenylmethylene-1,3-propanediyl)diimino]bisbenzoate], the inhibition in vivo at 10 mg/kg in series [1] (setting [6]) was found to be 37%; in series [1] (setting [7]), 30.9%. Also, the results for the inhibition in vivo at 50 mg/kg in series [1] (setting [6]) and in series [1] (setting [7]) were 45% and 50.1%, respectively.

Compound `O=C(CC(=O)Nc1cc([N+](=O)[O-])ccc1C(=O)O)Nc1cc([N+](=O)[O-])ccc1C(=O)O` [Compound 06, 4,4'-dinitro-2,2'-[(1,3-dioxo-1,3-propanediyl)diimino]bisbenzoic acid] returned a concentration for half-maximal inhibition (IC50) against hyaluronidase (IC50 (mM)) of 0.013 mM. Further, in series [3] (setting [8]), the inhibition in vivo at 10 mg/kg was 8.5%, the inhibition in vivo at 50 mg/kg is 14.9% and the inhibition in vivo at 100 mg/kg came to 18.6%. In addition, in series [3] (setting [9]), the inhibition in vivo at 10 mg/kg worked out at 11.2%, the inhibition in vivo at 50 mg/kg was 13.3% and the inhibition in vivo at 100 mg/kg was determined as 18.8%.

As for `Cc1oc(=O)oc1COC(=O)c1ccccc1NC(=O)C(=Cc1ccccc1)C(=O)Nc1ccccc1C(=O)OCc1oc(=O)oc1C` [Compound 59, di[(5-methyl-2-oxo-1,3-dioxole-4-yl)methyl]-2,2'-[(1,3-dioxo-2-phenylmethylene-1,3-propanediyl)diimino]bisbenzoate], in series [1] (setting [6]), the inhibition in vivo at 10 mg/kg was 22% and the inhibition in vivo at 50 mg/kg was found to be 65.7%. In series [1] (setting [7]), the inhibition in vivo at 10 mg/kg came to 25.1% and the inhibition in vivo at 50 mg/kg was found to be 62%.
